Experimental data as given in patent US20240067662A1, “KRAS INHIBITORS” (Bristol-Myers Squibb Company, priority 2022, published 2024).

Target: GMPPNP-loaded KRAS G12C (Homo sapiens, UniProt P01116, G12C)
Experiment: KRAS G12C RAF Disruption Assay (HTRF)
Assay type: biochemical
Conditions: recombinant GMPPNP-loaded KRAS G12C (5 nM), 20 min with compound; GST-RAF1 RBD (9 nM); HTRF signal; read-out: KRASG12C RAF Disruption Assay (IC50)
Method in brief: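 The read-out is an HTRF 520/495 emission ratio, with IC50 taken from dose-response curves. Compound was first incubated for 20 min at room temperature with active-state KRAS G12C (GMPPNP, 5 nM) in Tris pH 7.5/NaCl/MgCl2/DTT/BSA. RAF1 RBD-GST (9 nM, 20 min) and SA-Tb (0.25 nM, 3 h) were added in turn.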

GMPPNP-loaded KRAS G12C, sequence (P01116 1-188 isoform P01116-2 G12C): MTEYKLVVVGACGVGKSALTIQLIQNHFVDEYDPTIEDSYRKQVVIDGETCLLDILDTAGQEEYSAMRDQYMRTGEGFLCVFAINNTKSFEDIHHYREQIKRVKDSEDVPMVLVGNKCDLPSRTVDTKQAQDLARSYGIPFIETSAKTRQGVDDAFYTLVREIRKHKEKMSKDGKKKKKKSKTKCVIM

IC50 [nM]	SMILES
5000	C#Cc1cccc2cccc(-c3ncc4c(N5CC6(CCN(C(=O)/C(F)=C/c7ccccn7)CC6)C5)nc(OC[C@@]56CCCN5C[C@H](F)C6)nc4c3F)c12 [Compound 91, (Z)-1-(2-(7-(8-ethynylnaphthalen-1-yl)-8-fluoro-2-(((2R, 7aS)-2-fluorotetrahydro-1H-pyrrolizin-7a(5H)-yl)methoxy)pyrido[4,3-d]pyrimidin-4-yl)-2,7-diazaspiro[3.5]nonan-7-yl)-2-fluoro-3-(pyridin-2-yl)prop-2-en-1-one]
24000	C#Cc1cccc2cccc(-c3ncc4c(N5CC6(CCN(C(=O)/C(F)=C/c7ncccn7)CC6)C5)nc(OC[C@@]56CCCN5C[C@H](F)C6)nc4c3F)c12 [Compound 92, (Z)-1-(2-(7-(8-ethynylnaphthalen-1-yl)-8-fluoro-2-(((2R, 7aS)-2-fluorotetrahydro-1H-pyrrolizin-7a(5H)-yl)methoxy)pyrido[4,3-d]pyrimidin-4-yl)-2,7-diazaspiro[3.5]nonan-7-yl)-2-fluoro-3-(pyrimidin-2-yl)prop-2-en-1-one]
34	N#CC[C@H]1CN(c2nc(OC[C@@]34CCCN3C[C@H](F)C4)nc3c(F)c(-c4cc(O)ccc4C(F)(F)F)ncc23)CCN1C(=O)/C(F)=C/c1ccccn1 [Compound 94, 2-((S)-4-(8-fluoro-2-(((2R, 7aS)-2-fluorotetrahydro-1H-pyrrolizin-7a(5H)-yl)methoxy)-7-(5-hydroxy-2-(trifluoromethyl)phenyl)pyrido[4,3-d]pyrimidin-4-yl)-1-((Z)-2-fluoro-3-(pyridin-2-yl)acryloyl)piperazin-2-yl)acetonitrile]
14	N#CC[C@H]1CN(c2nc(OC[C@@]34CCCN3C[C@H](F)C4)nc3c(F)c(-c4cc(O)ccc4C(F)(F)F)ncc23)CCN1C(=O)/C(F)=C/c1nccs1 [Compound 95, 2-((S)-4-(8-fluoro-2-(((2R, 7aS)-2-fluorotetrahydro-1H-pyrrolizin-7a(5H)-yl)methoxy)-7-(5-hydroxy-2-(trifluoromethyl)phenyl)pyrido[4,3-d]pyrimidin-4-yl)-1-((Z)-2-fluoro-3-(thiazol-2-yl)acryloyl)piperazin-2-yl)acetonitrile]
110	C#Cc1ccc(F)c2cccc(-c3ncc4c(N5CCN(C(=O)/C(F)=C/c6ccccn6)CC5)nc(OC[C@@]56CCCN5C[C@H](F)C6)nc4c3F)c12 [Compound 96, (Z)-1-(4-(7-(8-ethynyl-5-fluoronaphthalen-1-yl)-8-fluoro-2-(((2R, 7aS)-2-fluorotetrahydro-1H-pyrrolizin-7a(5H)-yl)methoxy)pyrido[4,3-d]pyrimidin-4-yl)piperazin-1-yl)-2-fluoro-3-(pyridin-2-yl)prop-2-en-1-one]
550	C#Cc1ccc(F)c2cccc(-c3ncc4c(N5CCN(C(=O)/C(F)=C/c6ncccn6)CC5)nc(OC[C@@]56CCCN5C[C@H](F)C6)nc4c3F)c12 [Compound 97, (Z)-1-(4-(7-(8-ethynyl-5-fluoronaphthalen-1-yl)-8-fluoro-2-(((2R, 7aS)-2-fluorotetrahydro-1H-pyrrolizin-7a(5H)-yl)methoxy)pyrido[4,3-d]pyrimidin-4-yl)piperazin-1-yl)-2-fluoro-3-(pyrimidin-2-yl)prop-2-en-1-one]
91	C#Cc1c(F)c(F)cc2cccc(-c3ncc4c(N5CCN(C(=O)/C(F)=C/c6ncccn6)CC5)nc(OC[C@@]56CCCN5C[C@H](F)C6)nc4c3F)c12 [Compound 98, (Z)-1-(4-(7-(8-ethynyl-6,7-difluoronaphthalen-1-yl)-8-fluoro-2-(((2R, 7aS)-2-fluorotetrahydro-IH-pyrrolizin-7a(5H)-yl)methoxy)pyrido[4,3-d]pyrimidin-4-yl)piperazin-1-yl)-2-fluoro-3-(pyrimidin-2-yl)prop-2-en-1-one]
70	C#Cc1c(F)c(F)cc2cccc(-c3ncc4c(N5CCN(C(=O)/C(F)=C/c6ccccn6)CC5)nc(OC[C@@]56CCCN5C[C@H](F)C6)nc4c3F)c12 [Compound 99, (Z)-1-(4-(7-(8-ethynyl-6,7-difluoronaphthalen-1-yl)-8-fluoro-2-(((2R, 7aS)-2-fluorotetrahydro-IH-pyrrolizin-7a(5H)-yl)methoxy)pyrido[4,3-d]pyrimidin-4-yl)piperazin-1-yl)-2-fluoro-3-(pyridin-2-yl)prop-2-en-1-one]
5300	C#Cc1cccc2cccc(-c3ncc4c(N5C[C@H]6CN(C(=O)/C(F)=C/c7ccccn7)C[C@H]6C5)nc(OC[C@@]56CCCN5C[C@H](F)C6)nc4c3F)c12 [Compound 100, (Z)-1-((3aR, 6aS)-5-(7-(8-ethynylnaphthalen-1-yl)-8-fluoro-2-(((2R, 7aS)-2-fluorotetrahydro-1H-pyrrolizin-7a(5H)-yl)methoxy)pyrido[4,3-d]pyrimidin-4-yl)hexahydropyrrolo[3,4-c]pyrrol-2(1H)-yl)-2-fluoro-3-(pyridin-2-yl)prop-2-en-1-one]
12000	C#Cc1cccc2cccc(-c3ncc4c(N5C[C@H]6CN(C(=O)/C(F)=C/c7ncccn7)C[C@H]6C5)nc(OC[C@@]56CCCN5C[C@H](F)C6)nc4c3F)c12 [Compound 101, (Z)-1-((3aR, 6aS)-5-(7-(8-ethynylnaphthalen-1-yl)-8-fluoro-2-(((2R, 7aS)-2-fluorotetrahydro-1H-pyrrolizin-7a(5H)-yl)methoxy)pyrido[4,3-d]pyrimidin-4-yl)hexahydropyrrolo[3,4-c]pyrrol-2(1H)-yl)-2-fluoro-3-(pyrimidin-2-yl)prop-2-en-1-one]
240	C#Cc1cccc2cccc(-c3nc(OC)c4c(N5CCN(C(=O)/C(F)=C/c6ccccn6)CC5)nc(OC[C@@]56CCCN5C[C@H](F)C6)nc4c3F)c12 [Compound 109, (Z)-1-(4-(7-(8-ethynylnaphthalen-1-yl)-8-fluoro-2-(((2R, 7aS)-2-fluorotetrahydro-1H-pyrrolizin-7a(5H)-yl)methoxy)-5-methoxypyrido[4,3-d]pyrimidin-4-yl)piperazin-1-yl)-2-fluoro-3-(pyridin-2-yl)prop-2-en-1-one]
180	C#Cc1cccc2cccc(-c3nc(OC)c4c(N5CCN(C(=O)/C(F)=C/c6nccs6)CC5)nc(OC[C@@]56CCCN5C[C@H](F)C6)nc4c3F)c12 [Compound 110, (Z)-1-(4-(7-(8-ethynylnaphthalen-1-yl)-8-fluoro-2-(((2R, 7aS)-2-fluorotetrahydro-1H-pyrrolizin-7a(5H)-yl)methoxy)-5-methoxypyrido[4,3-d]pyrimidin-4-yl)piperazin-1-yl)-2-fluoro-3-(thiazol-2-yl)prop-2-en-1-one]
11	C#Cc1c(F)ccc2cc(O)cc(-c3ncc4c(N5CCN(C(=O)/C(F)=C/c6ccccn6)CC5)nc(OC[C@@H]5CCCN5CCCN=[N+]=[N-])nc4c3F)c12 [Compound 111, (S,Z)-1-(4-(2-((1-(3-azidopropyl)pyrrolidin-2-yl)methoxy)-7-(8-ethynyl-7-fluoro-3-hydroxynaphthalen-1-yl)-8-fluoropyrido[4,3-d]pyrimidin-4-yl)piperazin-1-yl)-2-fluoro-3-(pyridin-2-yl)prop-2-en-1-one]
